# According to patent US20230270713A1, “Administration of Resiniferatoxin For Treatment of Bladder Pain or Bladder Cancer” (Sorrento Therapeutics, Inc., priority 2020, published 2023):
# “Also recorded” adds a separate entry of the source.
# Assays:
# [1] = Adverse effects in dogs with bladder TCC (Example F); assay type: in vivo, dog; conditions: 16 dogs with bladder TCC
# Description: RTX was administered as a one-time treatment into the bladder on Day 0 with the option of repeating RTX at a future study day. A Foley urinary catheter was placed using a sterile standard technique. An abdominal ultrasound was concurrently performed to ensure that the tip of the catheter was in the bladder lumen. Urine was removed using a catheter tipped syringe.
# RTX was diluted in 0.9% NaCl and then infused into the bladder. The catheter was then flushed with 5-6 mL of 0.9% NaCl to ensure the entire IVP volume was administered. The Foley catheter was capped and remained in place for a period of 30 minutes post-infusion. The bladder was then emptied prior to removal of the Foley catheter. The timing of recovery was managed on an individual basis, but it was recommended to initiate recovery approximately 10 minutes after RTX infusion.
# [2] = system: bladder cancer (TCC); assay: Preliminary anti-cancer effect by bladder ultrasound in dogs with bladder cancer (Example D); assay type: in vivo, dog
# Description: Dogs with bladder cancer were treated with RTX as follows. Under general anesthesia, RTX was infused directly into the bladder using a foley catheter. RTX remained in the bladder for 30 minutes before removal.
# The primary endpoint was assessment of improvement of lower urinary tract signs with a 4-point lower urinary tract symptom scale (character of urination/degree of straining; frequency of urination (daytime); frequency of urination (nighttime); and blood in urine). The secondary endpoints were anti-cancer effect, as measured by bladder ultrasound, and quality of life.
# [3] = system: S1 and S2 DRG neurons expressing CGRP and SP; assay: CGRP and SP positive neurons in S1 and S2 dorsal root ganglia of cats (IHC); assay type: in vivo, cat
# Description: At day 14 the cats were anesthetized and perfused with saline followed by 10% formalin. After confirmation of successful euthanasia, lumbar and sacral segments of the spinal cord with corresponding dorsal spinal ganglia, the urinary bladder and urethra were harvested and tissues were prepared for immunohistochemistry.
# Previous studies have shown that TRPV1-immunoreactive axons co-express Calcitonin gene-related peptide (CGRP) and substance P (SP) (See, e.g., Sharrad et al. (2015) Neurosci. Lett., 599: 164-171; Bae et al. (2004) J. Comp. Neurol. 478: 62-71). Since feline bladder connective tissue, smooth muscle, and cell bodies of S2 DRG express CGRP+ and SP+ axons, expression of CGRP and SP were used in these studies to identify the majority of TRPV1 axons innervating the cat bladder and TRPV1+ cell bodies in cat S2 dorsal root ganglia (DRG).
# The percent of cell bodies from S1 and S2 DRG expressing SP and CGRP from feline bladders after intravesical application of either control (saline) or RTX (5, 25 or 50 mcg) was also examined using immunohistochemistry and confocal laser microscopy as described above. […] CGRP positive cell bodies were small to medium-size.
# [4] = Tolerability of intravesical RTX in healthy cats (physical exam, blood count, chemistry); assay type: in vivo, cat; conditions: healthy cats, 5, 25 or 50 mcg intravesical, during or post administration
# Description: To examine the effect of intravesical instillation of RTX on the bladder, 6 healthy cats, between the 2-5 years of age, were treated with either 5 (low dose), 25 (mid dose) or 50 mcg (high dose) of RTX (volume was 25 ml; concentrations were 0.2, 1, and 2 mcg/ml). These doses are considered equivalent to administration of 20, 100, or 200 mcg in a human with a volume of 100 ml. A seventh cat received saline only and served as the control. The bladders of the anesthetized cats were emptied and then flushed with sterile saline via a foley urinary catheter. Once the saline was removed, the treatment with RTX (test cats) or saline alone (control cat) was administered over 60 seconds and left in the bladder for 20 minutes.
# A physical exam, complete blood count and chemistry parameters were performed on day 0, 7, and 14. Complete blood count and chemistry parameters were analyzed at the Clinical Pathology Laboratory at the University of Georgia. Food consumption and signs of abnormal urination were monitored through the study period.
compound,measurement,setting,value
"C=C(C)[C@]12C[C@@H](C)[C@@]34O[C@](Cc5ccccc5)(O[C@@H]1[C@@H]3C=C(COC(=O)Cc1ccc(O)c(OC)c1)C[C@]1(O)C(=O)C(C)=C[C@@H]41)O2 [RTX, resiniferatoxin]",Tolerability,[1],very well tolerated
same,"dose dependence of the most commonly reported AE (emesis, diarrhea, anorexia)",[1],did not appear to be dose dependent
same,"AE anorexia, number of dogs",[1]; RTX 25-100 μg intravesical,4 dogs
same,"AE anorexia, percent of dogs",[1]; RTX 25-100 μg intravesical,25.0%
same,"AE diarrhea, number of dogs",[1]; RTX 25-100 μg intravesical,5 dogs
same,"AE diarrhea, percent of dogs",[1]; RTX 25-100 μg intravesical,31.3%
same,"AE emesis, number of dogs",[1]; RTX 25-100 μg intravesical,6 dogs
same,"AE emesis, percent of dogs",[1]; RTX 25-100 μg intravesical,37.5%
same,"AE lethargy, number of dogs",[1]; RTX 25-100 μg intravesical,4 dogs
same,"AE lethargy, percent of dogs",[1]; RTX 25-100 μg intravesical,25.0%
same,dogs with an SAE,[1]; SAE considered most likely related to tumor progression,1 dog
same,severity of the most common AEs,[1]; except one anorexia event considered severe,mild to moderate (Grade 1 or 2)
same,Best overall tumor response: change in largest tumor diameter,"[2]; Case 03-01, 9.0 kg dog, 25 ug (2.8 ug/kg), Day 84",−30%
same,Best Overall Response: tumor volume,"[2]; Case 41-02, 38.8 kg dog, 50 ug (1.3 ug/kg) dosed twice 28 days apart, Day 28",−24%
same,number of neurons (cell bodies) expressing CGRP and SP in S2 DRG,"[3]; cat, single 25 mcg intravesical, vs saline control",does not decrease; also recorded: did not modify
same,percentage of CGRP+ neurons in S1 DRG and S2 DRG,"[3]; cats, 5, 25 and 50 mcg, 14 days post treatment, vs control",did not affect
same,percentage of cell bodies expressing CGRP and SP in S1 and S2 DRG,"[3]; cats, 5, 25 or 50 mcg intravesical, vs control",did not affect
same,percentage of SP+ neurons in S1 DRG and S2 DRG,"[3]; cats, 14 days post-treatment",comparable to the control
same,Tolerability / clinical adverse effects,[4],well tolerated with no clinical adverse effects noted
